Assay results: patent US20070207537A1, “Bioreactor” (priority 2004, published 2007)

System: Human mesnchymal stem cells
Assay: Alamar Blue toxicity assay in perfused microbioreactor culture
Type: cell-based
Conditions: 250 ng/ml, read at day 3 and day 7, FIG. 3
Protocol: Human mesnchymal stem cells were suspended in the α Modified Eagle's Medium (MEM) at the cell density of 10^4/ml. A 50 μl of cell suspension was introduced to each of the microbioreactors and kept at 37° C. After 4 h, the cell was seen to attach to the surface of the microbioreactor under microscope. During culture, αMEM supplemented with 15% FBS, 2% antibiotics/antimycotics and with different concentrations of tested drugs was used. The chemicals used were Trimethoprim and Pyrimethamine, which are known to be toxic to cells. The concentrations of the drug were 100 ng/ml and 250 ng/ml. The flow rate was 0.025 ml/h. Alamar Blue was used to do toxicity assay, which simply indicates the cell metabolity.
The samples from 3 days of culture with drug, 7 days of culture with drug and 3 days of culture without drug and further 4 days culture with drug were incubated with culture medium supplemented with Alamar Blue at day 3 and day 7, respectively for 4 h. Then 100 μl of culture medium was transferred to 96-well plate to read using microplate reader at the excitation wavelength of 530 nm and emission wavelength of 590 nm. Toxicity was shown as the ratio of reading from untreated with drug and from treated with drug, see FIG. 3. The toxicity was increased with culture time with drug. No significant different in toxicity between the two concentrations of drug in the test.

In the case of `CCc1nc(N)nc(N)c1-c1ccc(Cl)cc1` [Pyrimethamine], the “Toxicity (ratio of reading from untreated with drug and from treated with drug)” value is reported as “dramatic increase in toxicity”.
